According to US8815935B2, “Inhibitors of protein prenyltransferases” (The Regents of the University of California, priority 2008, dated 2014):
Where two headings read alike, the source gives them in different places.

Assays:
GGTase-I = target: T1, GGTase-I (Rattus norvegicus, UniProt P53610+Q04631); experiment: In vitro GGTase-I enzyme assay (IC50, kinetics); assay type: biochemical
T1 construct: purchased JENA BIOSCIENCE
Experimental: The GGTase-I assay was carried out using RhoA as a substrate protein, GGTase-I (JENA Bioscience) and [3H]geranylgeranyl pyrophosphate. Incubation was for 30 min at 37° C. GGTase-II (or RabGGTase) assay was carried out using YPTI as a substrate protein, GGTase-II (Calbiochem, San Diego, Calif.) plus REP1 (Calbiochem) and [3H]geranylgeranyl pyrophosphate. Incubation was for 30 min at 37° C. FIGS. 20D-20F show the three dimensional structure of GGTase I (D), FTsse (E) and GGTase II (F) which can be obtained from X-ray diffraction studies of protein crystals.
GGTase-I and FTase activities were determined by following the incorporation of radiolabeled isoprenoid [^3H]-geranylgeranyl or [^3H]-farnesyl into substrate proteins. FTase or GGTase-I (50 nM) were used to initiate reactions containing 0.4 μM of [^3H]-FPP or 0.5 μM of [^3H]-GGPP and 2 μM of MBP-tagged substrates (K-Ras4B for FTase; RhoA for GGTase-I) in 20 μl of buffer {50 mM Tris-HCl (pH 7.5), 10 mM MgCl2, […] and 5 mM DTT}. Inhibitors were added at the indicated concentrations. The final DMSO concentration was 2.5% for all samples.
Reactions were carried out for 10 min at 30° C. The reaction mixture was spotted onto a filter paper, treated with 10% trichloroacetic acid (TCA) followed by ethanol and acetone washing. The filter was counted using a scintillation counter. Kinetic assays in which the GGPP concentration was varied employed fixed concentrations of GGTase-I and RhoA, and reactions were carried out for 5 min. Similarly, fixed concentrations of GGTase-I and GGPP were used when the amount of RhoA was varied.

Jurkat cells = experiment: Jurkat cell growth inhibition; assay type: cell-based, human
Experimental: In Table 4 in cell GI50 values for the growth inhibition of Jurkat cells are reported. The GI50 value is the concentration of a test compound needed to produce 50% growth inhibition in the cell type listed. In Table 4 the isolated yield of each synthetic step for the synthesis of corresponding compounds are also reported.
Panc-1 cells (Pancreatic cancer cell line) and Jurkat cells (T-cell leukemia) were treated with 12.5 μM of P5-H6 or 12.5 μM of mP5-H6a for 72 hours. The cell number was counted as described in Example 5.
Cell viability was determined by Cell Counting Kit-8 (CCK-8, Dojindo, Kumamoto, Japan) as described previously (31). Cell viability was calculated relative to the DMSO control. Cell cycle profile was analyzed by flow cytometry as described previously (32).

[1] = Tables 3, 5, 7, read-out: In vitro (enzyme assay) IC50, GGTase I
[2] = Homo sapiens, Jurkat, Tables 4, 6, 7, read-out: Jurkat cell GI50
[3] = Tables 8-15, no unit printed there (Table 7 head: μM unless otherwise specified), read-out: In vitro (GGTase I IC50)
[4] = Homo sapiens, Jurkat, Tables 8-15, no unit printed there, read-out: Jurkat GI50
[5] = Tables 4, 6, 7, read-out: Jurkat cell GI50
[6] = Tables 5, 14, read-out: In vitro (enzyme assay) IC50, GGTase I

| SMILES | IC50 (GGTase-I; [1]) [µM] | IC50 (GGTase-I; [3]) [µM] | other results |
| --- | --- | --- | --- |
| CCOC(=O)C1=C[C@@H](C(C)(C)C)N(S(=O)(=O)c2ccccc2C)[C@H]1c1ccc(Cl)cc1 | > 50 |  | GI50 (Jurkat cells; [2]): 18.5 µM |
| CONC(=O)C1=C[C@@H](C(C)(C)C)N(S(=O)(=O)c2ccccc2C)[C@H]1c1ccc(Cl)cc1 | 3.8 |  | GI50 (Jurkat cells; [2]): 12.6 µM |
| Cc1ccccc1S(=O)(=O)N1[C@@H](c2ccc(Cl)c(Cl)c2)C(C(=O)O)=C[C@H]1C(C)(C)C |  | 0.363 |  |
| CC(C)(C)[C@@H]1C=C(C(=O)O)[C@H](c2ccc(Cl)c(Cl)c2)N1S(=O)(=O)c1ccccc1Br |  | 0.348 |  |
| CC(C)(C)[C@@H]1C=C(C(=O)O)[C@H](c2ccc(Br)cc2)N1S(=O)(=O)c1ccccc1Cl |  | 0.349 |  |
| Cc1ccccc1S(=O)(=O)N1[C@@H](c2ccc(Cl)cc2)C(C(=O)O)=C[C@H]1C(C)CC(C)(C)C (stereo partly drawn) |  | 3.4 |  |
| COC(=O)[C@H](Cc1ccccc1)NC(=O)CCOCC1=C[C@@H](C(C)(C)C)N(S(=O)(=O)c2ccccc2C)[C@H]1c1ccc(Cl)cc1 |  | > 20 | GI50 (Jurkat cells; [4]): 5.1 µM |
| Cc1ccccc1S(=O)(=O)N1C(c2cccc(Cl)c2)C(C(N)=O)=CC[C@H]1c1ccc(Cl)cc1 (stereo partly drawn) |  | > 20 | GI50 (Jurkat cells; [4]): 5.36 µM |
| COC(=O)[C@H](CC(C)C)NC(=O)C1=CC[C@@H](c2ccc(Cl)cc2)N(S(=O)(=O)c2ccccc2C)C1c1cccc(Cl)c1 (stereo partly drawn) |  | > 50 | GI50 (Jurkat cells; [4]): 6.1 µM |
| Cc1ccccc1S(=O)(=O)N1[C@@H](c2cccc(Cl)c2)C(C(=O)N[C@@H](CC(C)C)C(N)=O)=CC[C@H]1c1ccc(Cl)cc1 |  | > 50 |  |
| CC(C)C[C@H](NC(=O)C1=CC[C@@H](c2cccc(Br)c2)N(S(=O)(=O)c2ccc(Cl)cc2)[C@H]1c1cccc(Cl)c1)C(N)=O |  | 39.1 |  |
| COC(=O)[C@H](Cc1ccccc1)NC(=O)C1=C[C@@H](C(C)(C)C)N(S(=O)(=O)c2ccccc2C)[C@H]1c1ccc(Cl)cc1 [P61-A05] |  |  | GI50 (Jurkat cells; [5]): 10.5 µM |
| Cc1ccccc1S(=O)(=O)N1[C@@H](c2ccc(Cl)cc2)C(C(=O)N[C@@H](Cc2ccccc2)C(N)=O)=C[C@H]1C(C)(C)C [P61-A06] |  |  | GI50 (Jurkat cells; [2]): 4.89 µM |
| Cc1ccccc1S(=O)(=O)N1[C@@H](c2ccc(Cl)cc2)C(C(=O)N[C@@H](Cc2ccccc2)C(=O)O)=C[C@H]1C(C)(C)C [P61-A08] | 1.4 |  | GI50 (Jurkat cells; [2]): 13 µM |
| Cc1ccccc1S(=O)(=O)N1[C@@H](c2ccc(Cl)cc2)C(C(=O)N[C@@H](CC(C)C)C(N)=O)=C[C@H]1C(C)(C)C [P61-B02] | 8.1 |  | GI50 (Jurkat cells; [2]): 6.58 µM |
| Cc1ccccc1S(=O)(=O)N1[C@@H](c2ccc(Cl)cc2)C(C(=O)N[C@@H](Cc2ccccc2)C(N)=O)=C[C@H]1C(C)(C)C [P61-B07] |  |  | GI50 (Jurkat cells; [5]): 6.1 µM |
| Cc1ccccc1S(=O)(=O)N1C(c2cccc(Cl)c2)C(C(=O)N[C@@H](CC(C)C)C(N)=O)=CC[C@H]1c1ccc(Cl)cc1 (stereo partly drawn) [P61-C05] | > 50 |  | GI50 (Jurkat cells; [2]): 6.1 µM |
| CC(C)C[C@H](NC(=O)C1=CC[C@@H](c2cccc(Br)c2)N(S(=O)(=O)c2ccc(Cl)cc2)C1c1cccc(Cl)c1)C(N)=O (stereo partly drawn) [P61-C06] | 39.1 |  | GI50 (Jurkat cells; [2]): 3.15 µM |
| CC(C)(C)[C@@H]1C=C(C(=O)N[C@@H](Cc2ccccc2)C(N)=O)[C@H](c2ccc(Cl)c(Cl)c2)N1S(=O)(=O)c1ccccc1Br [P61-E03] | > 20 |  |  |
| COC(=O)[C@H](CC(C)C)NC(=O)C1=CC[C@@H](c2ccc(Cl)cc2)N(S(=O)(=O)c2ccccc2C)[C@H]1c1cccc(Cl)c1 [P61-E07] | > 20 |  | GI50 (Jurkat cells; [2]): 3.53 µM |
| CC(C)C[C@H](NC(=O)C1=CC[C@@H](c2cccc(Cl)c2)N(S(=O)(=O)c2ccc(Br)cc2)[C@H]1c1cccc(Cl)c1)C(N)=O [P61-E08] | > 20 |  |  |
| NC(=O)[C@H](Cc1ccccc1)NC(=O)C1=CC[C@@H](c2cccc(Cl)c2)N(S(=O)(=O)c2ccc(Br)cc2)C1c1cccc(Br)c1 (stereo partly drawn) [P61-E09] | > 20 | > 20 |  |

| SMILES | IC50 (GGTase-I; [1]) [µM] | IC50 (GGTase-I; [3]) [µM] | other results |
| --- | --- | --- | --- |
| CC(C)CC(NC(=O)C1=CCC(c2cccc(Cl)c2)N(S(=O)(=O)c2ccc(Br)cc2)C1c1cccc(Cl)c1)C(=O)O (stereo not drawn) [P61-E11] |  |  | IC50 (GGTase-I; [6]): 0.5 µM |
| NC(=O)[C@H](Cc1ccccc1)NC(=O)C1=CC[C@@H](c2cccc(Br)c2)N(S(=O)(=O)c2ccc(Cl)cc2)C1c1cccc(Cl)c1 (stereo partly drawn) [P61-F11] |  |  | IC50 (GGTase-I; [6]): 0.3 µM |
| NC(=O)[C@H](Cc1ccccc1)NC(=O)C1=CC[C@@H](c2cccc(Br)c2)N(S(=O)(=O)c2ccc(Cl)cc2)C1c1cccc(Cl)c1 (stereo partly drawn) [P61-G02] |  |  | IC50 (GGTase-I; [6]): 0.45 µM |
| O=C(NC(Cc1ccccc1)C(=O)O)C1=CCC(c2cccc(Cl)c2)N(S(=O)(=O)c2ccc(Br)cc2)C1c1cccc(Cl)c1 (stereo not drawn) [P61-G05] |  |  | IC50 (GGTase-I; [6]): 0.15 µM |
| O=C(NC(Cc1ccccc1)C(=O)O)C1=CCC(c2cccc(Br)c2)N(S(=O)(=O)c2ccc(Cl)cc2)C1c1cccc(Cl)c1 (stereo not drawn) [P61-G07] |  |  | IC50 (GGTase-I; [6]): 0.07 µM |
| CC(C)CC(NC(=O)C1=CCC(c2cccc(Br)c2)N(S(=O)(=O)c2ccc(Cl)cc2)C1c1cccc(Cl)c1)C(=O)O (stereo not drawn) [P61-G08] |  |  | IC50 (GGTase-I; [6]): 0.06 µM |
| CC(C)CC(NC(=O)C1=CCC(c2cccc(Br)c2)N(S(=O)(=O)c2ccc(F)cc2)C1c1cccc(Cl)c1)C(=O)O (stereo not drawn) [P61-H06] |  |  | IC50 (GGTase-I; [6]): 0.21 µM; GI50 (Jurkat cells; Homo sapiens, Jurkat, Table 6, read-out: Jurkat cell GI50): 0.21 µM |
| O=C(N[C@@H](Cc1ccccc1)C(=O)O)C1=CC[C@@H](c2cccc(Br)c2)N(S(=O)(=O)c2ccc(F)cc2)[C@H]1c1cccc(Cl)c1 [P61-H07] |  |  | IC50 (GGTase-I; [6]): 0.011 µM |
| CC(C)CC(NC(=O)C1=CCC(c2cccc(Cl)c2)N(S(=O)(=O)c2ccc(Cl)cc2)C1c1cccc(Cl)c1)C(=O)O (stereo not drawn) [P61-H08] |  |  | IC50 (GGTase-I; [6]): 0.18 µM |
| O=C(NC(Cc1ccccc1)C(=O)O)C1=CCC(c2cccc(Cl)c2)N(S(=O)(=O)c2ccc(Cl)cc2)C1c1cccc(Cl)c1 (stereo not drawn) [P61-H09] |  |  | IC50 (GGTase-I; [6]): 0.021 µM |
| COC(=O)C(CC(C)C)NC(=O)C1=CCC(c2cccc(Cl)c2)N(S(=O)(=O)c2ccc(Br)cc2)C1c1cccc(Br)c1 (stereo not drawn) [P67-A04] | > 20 |  | GI50 (Jurkat cells; [2]): 8 µM |
| COC(=O)C(CC(C)C)NC(=O)C1=CCC(c2cccc(Cl)c2)N(S(=O)(=O)c2ccc(Cl)cc2)C1c1cccc(Cl)c1 (stereo not drawn) [P67-A05] | > 20 |  |  |
| COC(=O)C(CC(C)C)NC(=O)C1=CCC(c2cccc(Br)c2)N(S(=O)(=O)c2ccc(Cl)cc2)C1c1cccc(Cl)c1 (stereo not drawn) [P67-A07] | > 20 |  |  |
| COC(=O)C(CC(C)C)NC(=O)C1=CCC(c2cccc(Cl)c2)N(S(=O)(=O)c2ccc(Br)cc2)C1c1cccc(Cl)c1 (stereo not drawn) [P67-A09] | > 20 |  | GI50 (Jurkat cells; [2]): 3.81 µM |
| COC(=O)C(CC(C)C)NC(=O)C1=CCC(c2cccc(Br)c2)N(S(=O)(=O)c2ccc(F)cc2)C1c1cccc(Cl)c1 (stereo not drawn) [P67-H11] | > 20 |  |  |
| Cc1ccccc1S(=O)(=O)N1[C@@H](c2ccc(Cl)cc2)C(C(=O)O)=C[C@H]1C(C)(C)C [drawing 136] | 0.5 |  | GI50 (Jurkat cells; [2]): 20 µM |
| Cc1ccccc1S(=O)(=O)N1[C@@H](c2ccc(Cl)cc2)C(C(=O)O)=C[C@H]1C(C)(C)C [drawing 143] |  | 0.5 | GI50 (Jurkat cells; [4]): 20 µM |
| CC(C)(C)[C@@H]1C=C(C(=O)N[C@@H](Cc2ccccc2)C(N)=O)[C@H](c2ccc(Cl)c(Cl)c2)N1S(=O)(=O)c1ccccc1Br [drawing 167] |  | > 20 |  |
| Cc1ccccc1S(=O)(=O)N1C(c2cccc(Cl)c2)C(C(=O)O)=CC[C@H]1c1ccc(Cl)cc1 (stereo partly drawn) [drawing 183] |  | 0.31 | GI50 (Jurkat cells; [4]): 20 µM |
| Cc1ccccc1S(=O)(=O)N1C(c2cccc(Cl)c2)C(C(=O)O)=CC[C@H]1c1ccc(Cl)cc1 (stereo partly drawn) [drawing 189] |  | 0.31 |  |
| CC(C)C[C@H](NC(=O)C1=CC[C@@H](c2cccc(Cl)c2)N(S(=O)(=O)c2ccc(Br)cc2)[C@H]1c1cccc(Cl)c1)C(N)=O [drawing 209] |  | > 20 |  |
